From US6911454B1, “Method for potentiating primary drugs in treating multidrug resistant disease” (priority 1989, dated 2005)
“Also recorded” adds a separate entry of the source. Read-outs that look alike come from different tables or passages of the source.

How the values were obtained:
[1] = L.D.50 by single escalating injections; assay type: in vivo, mice
Method: In addition, the effects of d-Tetrandrine-(S) plus doxorubicin in Nu/Nu athymic mice inoculated with DX20 sarcoma cells, 76×resistant when compared to the parent MES-SA cells were examined. Four cohorts of nude animals bearing the DX20 tumor were treated in groups of 5 (control, doxorubicin, d-tetrandrine, and doxorubicin+d-tetrandrine). […] (See FIG. 6). Tumor size was calculated using the formula (4 Pi/3) X*Y*2Z. […] An L.D.50 dose of 260 mg/kg was also calculated by administering single escalating injections of the compound. Tables I & II and FIG. 6 give the actual measurements.

DX20 tumor = experiment: tumor measurements in nude mice bearing the DX20 tumor; assay type: in vivo
Method: (See FIG. 6). Tumor size was calculated using the formula (4 Pi/3) X*Y*2Z.
The study was done with 3-4 week old male balb-C nude mice. The animals were injected with DX20 1×10^7 cells.

A2780AD10 = conditions: FIG. 4; A2780AD10 versus parent A2780; addition of d-tetrandrine
[2] = system: CQ-sensitive (FCMSU1/Sudan) strain of P. falciparum; experiment: 3H-adenosine incorporation, chloroquine-sensitive P. falciparum; assay type: cell-based
Method: (§1) Chloroquine and qinghaosu are commonly used antimalarial drugs.
(§2) The dose (IC50) of each drug or each drug combination required to effect a 50% inhibition in the malarial activity of each strain was determined by establishing a dose response curve for each.
(§3) FCMSU1/Sudan strain and cloned Indochina (W-2) strain of P. falciparum were used. […] The two strains of the parasite were cultured according to the candle jar method of Trager and Jensen, Science, Vol. 193, pages 673-675 (1976). In a given experiment, four-day-old Petri dish cultures (approximately 10% parasitemia) were diluted with medium containing an amount of noninfected type A human erythrocytes to obtain a culture with a final hematocrit of 1.5% and parasitemia of 0.5-1.0%. The resulting culture was ready for addition to microtitration plates with ninety-six flat-bottom wells.
(§4) The testing procedure used was similar to that described by Desjardins et al. in “Antimicrobial Agents and Chemotherapy,” Vol. 16, pages 710-718 (1979). […] 25 microliters radioactive (0.5 microCi) [2,8-^3H] adenosine. The microtitration plates were incubated in a candle jar for an additional 18 hours, at 37° C.
(§5) As the malaria parasite grows ^3H-adenosine is metabolized and incorporates into polymeric RNA and DNA. The labeled polymers are trapped on glass fiber filters and unincorporated material is washed away. In the absence of drug there is 100% incorporation of the labeled material. When drugs interfere (directly or indirectly), an inhibitory dose of 50% (IC50) can be calculated. The experiments were repeated three times except where noted. Statistical analysis was done using Student's T-test for significance. Van Kyke et al. “Exp. Parasitol,” Vol. 64, pages 418-423 (1987).
(§6) The test procedure was basically the same as outlined above.

breast cancer = experiment: treatment of a person with breast cancer; assay type: in vivo, human; conditions: d-tetrandrine 180 mg per day orally from day 95, with trichemo (5-fluorouracil, cyclophosphamide, doxorubicin)
Method: A person with breast cancer was given d-tetrandrine orally, three times a day for a total of 180 mg per day, over a two week period. Five days after the beginning of that treatment, they were given a trichemo soup of 5-fluorouracil, cyclophosphamide and doxorubicin. Eight days later, near the end of the d-tetrandrine dosage, they were given 5-fluorouracil. This regime was followed two different times approximately two weeks apart during the course of retreatment.
A person with very serious breast cancer has also been successfully treated in accordance with the method of the present invention. The tables below describe their treatment regime, which involved a trichemo soup of 5-fluorouracil, cyclophosphamide and doxorubicin, administered intermittently with 5-fluorouracil alone. No d-tetrandrine was administered until day 95.
FIG. 11 is a graphical log of […] tumor area in cubic centimeters charted against days elapsed. The tumor initially responded to the trichemo treatment alone, reducing in size until day 50.
The patient was diagnosed via biopsy on Mar. 19, 1991 as having an infiltrated carcinoma (poorly differentiated) on the right breast. […] They were treated with a combination of 5-fluorouracil, cyclophosphamide and doxorubicin according to the schedule shown below. […] Notice the increase in tumor size between days 50 and 100 indicating the formation of drug resistance.

DX20 = conditions: FIG. 5; colony formation, 7 days; addition of d-tetrandrine
Method: The second assay model used, colony formation assay, consisted of 1000-1500 cells, again depending on the proliferation rate of the cell line being added to each well of 24 well microtiter plates in 500 microliters of culture media. The cells were allowed to attach overnight. […] The plates were incubated for a total of 7 days before being fixed in 2.5% glutaraldehyde and stained with crystal violet. Quantitations of colony growth were assessed using an ultrasensitive imaging device (LCVS-5, I.P.S., Pittsburgh, Pa.). A colony is defined as any cluster of 30 or more cells. Percent inhibition was directly measured against control plates containing no drugs.

[3] = d-Tetrandrine-(S) detected at the tumor; assay type: in vivo, mice; conditions: 3 intraperitoneal injections over 120 hours, 150 mg/kg total
[4] = system: multidrug resistant human cancer (DX20); assay type: in vivo, mice; conditions: d-tetrandrine 0.5, 1, 1.5 mg injections; doxorubicin 5.5 mg per kg; about one month
Method: It is only important that they be administered sufficiently close together that the cancer is exposed to both simultaneously. For example, nude mice infected with a multidrug resistant human cancer were given 0.5 mg, 1 mg and 1.5 mg respectively in three separate injections, 72 hours apart.

[5] = system: resistant (K562-R7) cancel cells; experiment: doxorubicin fluorescence test by flow cytometry; assay type: cell-based; conditions: FIG. 12, resistant cells pre-incubated with tetrandrine
[6] = system: CQ-resistant (W-2) strain of P. falciparum; experiment: 3H-adenosine incorporation, chloroquine-resistant P. falciparum; assay type: cell-based
Method: as §1, §2, §3, §4, §5, §6

[7] = Day 7 Prior to Treatment (baseline)
[8] = Day 24 After Treatment, d-tetrandrine days 6, 8, 10, doxorubicin 5.5 mg/kg day 12

COc1ccc2cc1Oc1ccc(cc1)C[C@H]1c3cc(c(OC)cc3CCN1C)Oc1c(OC)c(OC)cc3c1[C@H](C2)N(C)CC3 [TT, tetrandrine]
L.D.50 dose [1]: 260 mg/kg | Tumor Measurements Depth (DX20 tumor; [7]): 1.13 | Tumor Measurements Length (DX20 tumor; [7]): 4.13 | Tumor Measurements Width (DX20 tumor; [7]): 3.75 | Tumor Measurements Depth (DX20 tumor; [8]): 24.66 | Tumor Measurements Width (DX20 tumor; [8]): 26.16 | doxorubicin resistance reversal (A2780AD10): either partially or completely reversed | IC50 ([2]; S STRAIN, TT/CQ 10:1, mean ± S.D, read-out: IC50 DRUG COMBINATION TT(2.0 uM) CQ(0.2 uM)): 114 ± 23 nM | IC50 ([2]; S STRAIN, TT/QHS 10:1, mean ± S.D, read-out: IC50 DRUG COMBINATION TT(2.0 uM) QHS(0.2 uM)): 114 ± 6.3 nM | IC50 ([2]; Table III, S STRAIN, mean ± S.D, read-out: IC50 SINGLE DRUG): 498 ± 93.7 nM | IC50 ([2]; Table IV, S STRAIN, mean ± S.D, read-out: IC50 SINGLE DRUG): 410 ± 69 nM | IC50 ([2]; Table VII, chloroquine-sensitive strain, drug alone, read-out: IC50 S): 290 nM | IC50 ([2]; read-out: IC50 DRUG COMBINATION TT(1.0 uM) CQ(0.3 uM), S STRAIN, TT/CQ 10:3, mean ± S.D): 54.9 ± 7.1 nM | IC50 ([2]; read-out: IC50 DRUG COMBINATION TT(1.0 uM) QHS(0.3 uM), S STRAIN, TT/QHS 10:3, mean ± S.D): 71.9 ± 8.9 nM | IC50 ([2]; read-out: IC50 DRUG COMBINATION TT(3.0 uM) CQ(0.1 uM), S STRAIN, TT/CQ 30:1, mean ± S.D): 223 ± 38.6 nM | IC50 ([2]; read-out: IC50 DRUG COMBINATION TT(3.0 uM) QHS(0.1 uM), S STRAIN, TT/QHS 30:1, mean ± S.D): 220 ± 35.5 nM | tumor outcome in patient (breast cancer): substantially eliminated; also recorded: continued to diminish to nonexistence by day 175 | doxorubicin-resistance reversal (DX20): either partially or completely reversed | d-Tetrandrine-(S) detected at the tumor [3]: 54 micrograms/gram tissue | tumor outcome [4]: very large tumors which were unabated | doxorubicin concentration (fluorescence) in resistant versus sensitive cells ([5]; listed as d-tetrandrine): greater in the resistant cancer than it is in the sensitive cancer | doxorubicin concentration (fluorescence) in resistant versus sensitive cells ([5]; listed as tetrandrine (TT)): contains more doxorubicin than the sensitive strain | IC50 ([6]; R STRAIN, TT/CQ 10:1, mean ± S.D, read-out: IC50 DRUG COMBINATION TT(2.0 uM) CQ(0.2 uM)): 79.5 ± 16.1 nM | IC50 ([6]; R STRAIN, TT/QHS 10:1, mean ± S.D, read-out: IC50 DRUG COMBINATION TT(2.0 uM) QHS(0.2 uM)): 71.8 ± 13.8 nM | IC50 ([6]; Table III, R STRAIN, mean ± S.D, read-out: IC50 SINGLE DRUG): 198 ± 24.7 nM | IC50 ([6]; Table IV, R STRAIN, mean ± S.D, read-out: IC50 SINGLE DRUG): 206 ± 49.8 nM | IC50 ([6]; Table VII, chloroquine-resistant strain, drug alone, read-out: IC50 R): 120 nM | IC50 ([6]; read-out: IC50 DRUG COMBINATION TT(1.0 uM) CQ(0.3 uM), R STRAIN, TT/CQ 10:3, mean ± S.D): 79.5 ± 13.7 nM | IC50 ([6]; read-out: IC50 DRUG COMBINATION TT(1.0 uM) QHS(0.3 uM), R STRAIN, TT/QHS 10:3, mean ± S.D): 59.6 ± 13.7 nM | IC50 ([6]; read-out: IC50 DRUG COMBINATION TT(3.0 uM) CQ(0.1 uM), R STRAIN, TT/CQ 30:1, mean ± S.D): 125 ± 9.6 nM | IC50 ([6]; read-out: IC50 DRUG COMBINATION TT(3.0 uM) QHS(0.1 uM), R STRAIN, TT/QHS 30:1, mean ± S.D): 137 ± 41.6 nM
